Reference: publication PMC6814738, “Bacterial MgrB peptide activates chemoreceptor Fpr3 in mouse accessory olfactory system and drives avoidance behaviour” (Nature Communications, 2019)
Peptide text beside a SMILES is read from it. * marks the point of attachment. For = O=C*

Experiments:
[1] = system: Fpr3-expressing VSNs; experiment: Egr1 induction in Fpr3-positive VSNs after oronasal peptide application, RNAscope (Fig. 7c, e); type: in vivo, mouse; conditions: 100 µM, male B6 mice
Experimental: (§1) For each mouse, serial coronal VNO cryosections (12 µm) were collected as two alternate sets, each representing every second section of the whole VNO. One set was subjected to RNAscope in situ hybridisation using the RNAscope Fluorescent Multiplex Detection Kit (ACD Bio-Techne) and specific probes for Fpr3 and LacZ according to the manufacturer’s protocol. Sections were incubated in 1 x citrate buffer pH 6.0 (DAKO, Germany) for 5 min at 98 °C in a coplin jar, rinsed twice in distilled water, dehydrated in 100% ethanol, and air dried prior to protease III treatment for 30 min at 40 °C. After rinsing in distilled water, sections were simultaneously hybridised with RNA scope target probes generated for mouse Fpr3 and E.coli LacZ (ACD Bio-Techne). The Fpr3 probe was designed as channel 1 probe containing 7 ZZ structures targeting base pairs 456–1143 of NM_008042.2, specific to mouse Fpr3. The LacZ probe, designed as channel 3 probe contains 30 ZZ structures targeting the region 279–1790 bp of KC847299.1 (cat# 313451-C3). […] Following hybridisation (2 h, 40 °C), sections were rinsed twice for 2 min in wash buffer (ACD Bio-Techne), and sequentially treated with amplification solutions at 40 °C (30 min Amp1-FL, 15 min Amp2-FL, 30 min Amp3-FL) and fluorescence reagent (15 min, 40 °C Amp4-altC), with intermitting washing steps at room temperature between reagents. Cell nuclei were stained with DAPI solution (ACD Bio-Techne) for 1 min, and tissue sections were mounted with DAKO fluorescence medium and stored for 12 h at 4 °C. Fluorescence images of the RNAscope results were acquired from each section using a Zeiss LSM 880 confocal microscope containing a 32-channel GaAsP-PMT and 2-channel PMT QUASAR detector.
We stimulated adult male B6 mice with f-MKKFRW (100 µM) and performed double-labelling RNAscope in situ hybridisation for Fpr3 and the immediate early gene Egr1 on VNO tissue sections. […] VNO tissue was prepared for RNAscope fluorescence in situ hybridisation as described above using Fpr3 and Egr1 probes simultaneously. […]

[2] = system: Fpr3-expressing VSNs; experiment: Egr1 induction in Fpr3-positive VSNs after voluntary peptide uptake in freely behaving mice, RNAscope (Fig. 7d, f); type: in vivo, mouse; conditions: male B6 mice
Experimental: as §1, with “°C.” for “°C. After rinsing in distilled water, sections were simultaneously hybridised with RNA scope target probes generated for mouse Fpr3 and E.coli LacZ (ACD Bio-Techne). The Fpr3 probe was designed as channel 1 probe containing 7 ZZ structures targeting base pairs 456–1143 of NM_008042.2, specific to mouse Fpr3. The LacZ probe, designed as channel 3 probe contains 30 ZZ structures targeting the region 279–1790 bp of KC847299.1 (cat# 313451-C3).”, “detector. […]” for “detector.”

[3] = system: Fpr1; conditions: cited from earlier work
Experimental: (§2) We estimate the fraction of knobs responding to f-MKKFRW as ~0.15%, which is similar to the fraction of cells in the VNE that express Fpr3[30]. Strikingly, the sensitivity and sequence-selectivity profile of these responses was nearly identical to the results that we obtained for heterologously expressed Fpr3. The detection threshold of native VSNs for f-MKKFRW was ≤0.1 µM (Fig. 4f), virtually the same as for Fpr3-expres ...

[4] = system: Fpr2; conditions: cited from earlier work
Experimental: as §2

Row | Compound | Egr1-positive / Fpr3-positive VSNs ([1]; oronasal) | fraction of Fpr3-positive VSNs co-localised with Egr1 ([1]; oronasal, mean ± s.d.) | Egr1 induction in Fpr3-positive VSNs ([1]; oronasal or voluntary uptake, both types of experiments) | fraction of Fpr3-positive VSNs co-localised with Egr1 ([2]; 100 µM in 50% FEU, mean ± s.d.) | Egr1-positive / Fpr3-positive VSNs ([2]; 100 µM) | activation of Fpr1, in words [3] | activation of Fpr2, in words [4]
1 | CSCC[C@H](NC=O)C(=O)N[C@@H](CCCCN)C(=O)N[C@@H](CCCCN)C(=O)N[C@@H](Cc1ccccc1)C(=O)N[C@@H](CCCNC(=N)N)C(=O)N[C@@H](Cc1c[nH]c2ccccc12)C(=O)O [f-MKKFRW] (For-MKKFRW-OH) | 145/317 | 0.46 ± 0.11 | ~ 50% | 0.46 ± 0.12 | 77/160 |  | 
2 | f-MGFFIS [bacterial signal peptide fragment] |  |  |  |  |  | activates Fpr1 | activates Fpr1 and Fpr2
